From ChEMBL document CHEMBL1129774, “Antitumor agents 171. Cytotoxicities of lobatosides B, C, D, and E, cyclic bisdesmosides isolated from Actinostemma lobatum maxim” (1996)
“And” between values parts separate entries of the source, which are not always exact repeats. Identical values can stand only once.

Experiments:
Format in all cases: functional
[1] = tested on: SF-295; assay: In vitro cytotoxicity against human CNS cancer SF-295 cell line.
[2] = tested on: SK-MEL-28; assay: In vitro cytotoxicity against human melanoma SK-MEL-28 cancer cell line.
[3] = tested on: PC-3; assay: In vitro cytotoxicity against human prostate cancer PC-3 cell line
[4] = tested on: MDA-MB-435; assay: In vitro cytotoxicity against human […] MDA-MB-435 cell line
[5] = tested on: SK-MEL-5; assay: In vitro cytotoxicity against human melanoma SK-MEL-5 cancer cell line.
[6] = tested on: A549; assay: In vitro cytotoxicity against human Non-small cell lung cancer A549/ATCC cell line.
[7] = tested on: UO-31; assay: In vitro cytotoxicity against human renal cancer UO-31 cell line
[8] = tested on: HL-60; assay: In vitro cytotoxicity against human leukemia HL-60(TB) cancer cell line
[9] = tested on: HCC 2998; assay: In vitro cytotoxicity against human colon cancer HCC2998 cell line.
[10] = tested on: OVCAR-5; assay: In vitro cytotoxicity against human ovarian cancer OVCAR-5 cell line

C[C@@H]1O[C@H]2O[C@H]3[C@@H](OC[C@H](O)[C@@H]3O)OC(=O)[C@@]34CC[C@@H]5C(=CC[C@H]6[C@@]5(C)CC[C@H]5C(C)(C)[C@@H](O[C@@H]7O[C@H](CO)[C@@H](O)[C@H](O)[C@H]7O[C@H]7OC[C@H](OC(=O)CC(C)(O)CC(=O)O[C@@H]1[C@@H](O)[C@H]2O)[C@H](O)[C@H]7O)[C@@H](O)C[C@]65C)[C@@H]3CC(C)(C)CC4 (stereo partly specified)
GI50 [1]: 3390 nM | GI50 [2]: 1940 nM | GI50 [3]: 2190 nM | GI50 [4]: 5890 nM | GI50 [5]: 4170 nM | GI50 [6]: 2240 nM | GI50 [7]: 6.03 µM | GI50 [8]: 1780 nM | GI50 [9]: 2400 nM and 8910 nM | GI50 [10]: 1320 nM

C[C@@H]1O[C@H]2O[C@H]3[C@@H](OC[C@H](O)[C@@H]3O)OC(=O)[C@@]34CCC5C(=CC[C@@H]6[C@@]7(C)C[C@H](O)[C@H](O[C@@H]8O[C@H](CO)[C@@H](O)[C@H](O)[C@H]8O[C@@H]8O[C@H](CO)[C@H](O)[C@H](O)[C@H]8OC(=O)CC(C)(O)CC(=O)O[C@@H]1[C@@H](O[C@@H]1O[C@H](CO)[C@@H](O)[C@H](O)[C@H]1O)[C@H]2O)C(C)(C)[C@@H]7CC[C@@]56C)[C@@H]3CC(C)(C)CC4 (stereo partly specified)
GI50 [1]: 1510 nM | GI50 [2]: 1290 nM | GI50 [3]: 1950 nM | GI50 [4]: 1450 nM | GI50 [5]: 140 nM | GI50 [6]: 140 nM | GI50 [7]: 1.62 µM | GI50 [8]: 1450 nM | GI50 [9]: 1410 nM and 360 nM | GI50 [10]: 2000 nM

C[C@@H]1O[C@H]2OC3[C@@H](OC[C@H](O)[C@@H]3O)OC(=O)[C@@]34CC[C@@H]5C(=CC[C@H]6[C@@]5(C)CC[C@H]5C(C)(C)[C@@H](O[C@@H]7O[C@H](CO)[C@@H](O)[C@H](O)[C@H]7O[C@@H]7O[C@H](CO)[C@@H](O)[C@H](O)[C@H]7OC(=O)CC(C)(O)CC(=O)O[C@@H]1[C@@H](O)[C@H]2O)[C@@H](O)C[C@]65C)[C@@H]3CC(C)(C)CC4 (stereo partly specified)
GI50 [1]: 1780 nM | GI50 [2]: 1510 nM | GI50 [3]: 1380 nM | GI50 [4]: 1580 nM | GI50 [5]: 1200 nM | GI50 [6]: 1320 nM | GI50 [7]: 1.23 µM | GI50 [8]: 1410 nM | GI50 [9]: 1150 nM | GI50 ([9]; Homo sapiens, HCC 2998): 1320 nM | GI50 [10]: 1620 nM

C[C@@H]1O[C@H]2O[C@H]3[C@@H](OC[C@H](O)[C@@H]3O)OC(=O)[C@@]34CCC5C(=CC[C@@H]6[C@@]7(C)C[C@H](O)[C@H](O[C@@H]8O[C@H](CO)[C@@H](O)[C@H](O)[C@H]8O[C@H]8OC[C@H](OC(=O)CC(C)(O)CC(=O)O[C@@H]1[C@@H](O[C@@H]1O[C@H](CO)[C@@H](O)[C@H](O)[C@H]1O)[C@H]2O)C(O)[C@H]8O)C(C)(C)[C@@H]7CC[C@@]56C)[C@@H]3CC(C)(C)CC4 (stereo partly specified)
GI50 [1]: 4070 nM | GI50 [2]: 1940 nM | GI50 [3]: 7940 nM | GI50 [4]: 2450 nM | GI50 [5]: 11400 nM | GI50 [6]: 3890 nM | GI50 [7]: 4.47 µM | GI50 [8]: 1820 nM | GI50 [9]: 2450 nM and 9330 nM | GI50 [10]: 8910 nM
